Data set [1] has as its system Dirofilaria immitis microfilariae. In words: In vitro assay 3: Dirofilaria immitis microfilariae (DIROIM L1), motility. To be noted: 72 h, reduction of motility vs negative control, 72 h incubation.
Data set [2] concerns Dirofilaria immitis third-stage larvae. In words: In vitro assay 4: Dirofilaria immitis (DIROIM L4), motility of larvae. To be noted: 72 h.
Data set [3] relates to Litomosoides sigmodontis third-stage larvae. In words: In vitro assay 7: Litomosoides sigmodontis L3 (LTMOSI), motility. Particulars: 72 h, reduction of motility vs negative control, 72 h incubation.
Experimental: In Vitro Assay 7: Litomosoides Siqmodontis L3 (LTMOSI)
10 Litomosoides sigmodontis third-stage larvae, which were freshly isolated from the pleural cavity of an infected rodent, were added to wells of a microtitre plate containing a nutrient medium and the test compound in DMSO. Compounds were tested in concentration-response assay in duplicate. Larvae exposed to DMSO and no test compounds were used as negative controls. Larvae were evaluated after 72 h of incubation with the compound. Efficacy was determined as the reduction of motility in comparison to the negative control. Based on the evaluation of a wide concentration range, concentration-response curves as well as ECso-values were calculated.
A short description of data set [4]: log P by HPLC on reversed phase columns (Method L0; [a] acidic, [b] neutral range).
Experimental: Calibration was done with straight-chain alkan-2-ones (with 3 to 16 carbon atoms) with known log P values (measurement of log P values using retention times with linear interpolation between successive alkanones). Lambda-max-values were determined using UV-spectra from 200 nm to 400 nm and the peak values of the chromatographic signals.
The next data set addresses C. elegans Slo-1a (Caenorhabditis elegans, UniProt Q95V25). In words: In vitro assay 1: C. elegans Slo-1a, action at a recombinant C. elegans CHO cell line (membrane potential measurement).

C. elegans Slo-1a, sequence (Q95V25 whole entry): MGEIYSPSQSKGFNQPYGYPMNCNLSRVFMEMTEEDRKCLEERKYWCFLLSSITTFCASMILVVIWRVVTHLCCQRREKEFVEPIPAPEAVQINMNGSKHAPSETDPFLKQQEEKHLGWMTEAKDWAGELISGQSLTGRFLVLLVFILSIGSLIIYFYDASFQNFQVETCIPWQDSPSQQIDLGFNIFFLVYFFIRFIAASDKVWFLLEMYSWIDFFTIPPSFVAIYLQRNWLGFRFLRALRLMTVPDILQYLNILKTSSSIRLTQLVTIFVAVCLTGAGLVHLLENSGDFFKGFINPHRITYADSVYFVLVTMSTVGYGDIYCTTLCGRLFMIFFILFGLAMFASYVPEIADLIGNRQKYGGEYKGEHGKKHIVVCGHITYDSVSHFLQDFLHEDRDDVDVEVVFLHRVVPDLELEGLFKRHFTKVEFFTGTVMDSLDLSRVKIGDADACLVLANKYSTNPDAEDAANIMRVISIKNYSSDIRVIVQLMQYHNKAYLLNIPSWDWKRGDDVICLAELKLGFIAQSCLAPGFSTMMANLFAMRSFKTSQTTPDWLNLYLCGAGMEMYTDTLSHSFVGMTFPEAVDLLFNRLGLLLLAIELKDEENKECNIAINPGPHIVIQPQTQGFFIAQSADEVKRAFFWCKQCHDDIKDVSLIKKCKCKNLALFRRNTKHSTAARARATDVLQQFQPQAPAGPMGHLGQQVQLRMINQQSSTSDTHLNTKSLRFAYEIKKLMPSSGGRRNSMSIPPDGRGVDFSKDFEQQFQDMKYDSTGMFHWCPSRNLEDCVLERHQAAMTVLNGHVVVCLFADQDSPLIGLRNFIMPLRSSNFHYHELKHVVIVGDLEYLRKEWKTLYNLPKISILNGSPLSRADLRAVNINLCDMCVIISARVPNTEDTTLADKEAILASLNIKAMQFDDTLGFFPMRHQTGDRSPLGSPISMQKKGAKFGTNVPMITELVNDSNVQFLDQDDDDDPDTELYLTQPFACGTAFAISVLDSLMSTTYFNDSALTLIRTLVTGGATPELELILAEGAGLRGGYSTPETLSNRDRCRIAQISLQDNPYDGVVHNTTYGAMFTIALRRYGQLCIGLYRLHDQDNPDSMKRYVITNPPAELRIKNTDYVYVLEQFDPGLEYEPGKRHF

Broadly, the EC50 is the concentration that produces a half-maximal response. One may read the chromatographic logP as a lipophilicity value derived from retention on a column. In the case of `Cc1nn2c(C(C)C)c(C(=O)N[C@H]3CCc4ccccc43)cnc2c1-c1cc(F)ccc1F` [Example 116], the EC50 is < 0.1 µg/mL in data set [1], < 0.1 µg/mL in data set [2], < 0.1 µg/mL in data set [3] and 10 nM on C. elegans Slo-1a. Besides, the chromatographic logP in data set [4] was determined as 4.59.

With `Cc1nn2c(C(C)C)c(C(=O)N[C@H]3CCOc4ccccc43)cnc2c1-c1cccc(Cl)c1` [Example 117], the concentration giving a half-maximal response (EC50) was < 0.1 µg/mL in data set [1], < 0.1 µg/mL in data set [2], < 0.1 µg/mL in data set [3] and 5.01 nM at C. elegans Slo-1a. In data set [4], this molecule had a chromatographic logP of 4.87.

With `Cc1nn2c(C(C)C)c(C(=O)N[C@H]3CCOc4ccccc43)cnc2c1-c1cc(F)ccc1F` [Example 121], the EC50 in data set [1] was < 0.1 µg/mL; in data set [2], < 0.1 µg/mL; in data set [3] it was < 0.1 µg/mL; at C. elegans Slo-1a, 6.31 nM. In data set [4], the chromatographic logP was 4.41.

With `Cc1nn2c(C(C)C)c(C(=O)N[C@H]3CCCc4ccccc43)cnc2c1-c1c(F)cccc1Cl` [Example 131], the concentration for a half-maximal effect (EC50) in data set [1] was < 0.1 µg/mL; in data set [2], < 0.1 µg/mL; in data set [3], < 0.1 µg/mL; at C. elegans Slo-1a, 7.94 nM. Further, in data set [4], the chromatographic logP came out at 5.02.

For the molecule `Cc1nn2c(C(C)C)c(C(=O)N[C@H]3CCc4ccccc43)cnc2c1-c1c(F)cccc1Cl` [Example 132], the EC50 in data set [1] was < 0.1 µg/mL; in data set [2], < 0.1 µg/mL; in data set [3], < 0.1 µg/mL; at C. elegans Slo-1a, 6.31 nM. Also, the chromatographic logP in data set [4] came out at 4.71.

In the case of `Cc1nn2c(C(C)C)c(C(=O)N[C@H]3CCCc4ccccc43)cnc2c1-c1cccc(F)c1F` [Example 134], the EC50 in data set [1] is < 0.1 µg/mL; in data set [2], < 0.1 µg/mL; in data set [3], < 0.1 µg/mL; on C. elegans Slo-1a, 12.6 nM. In data set [4], the chromatographic logP came to 4.9.

Consider `Cc1nn2c(C(C)C)c(C(=O)N[C@H]3CCc4ccccc43)cnc2c1-c1cccc2c1OC(F)(F)O2` [Example 147], for which the 50% effective concentration (EC50) in data set [1] is < 0.1 µg/mL; in data set [2], < 0.1 µg/mL; in data set [3], < 0.1 µg/mL; at C. elegans Slo-1a, 50.1 nM. Besides, the chromatographic logP in data set [4] was determined as 5.17.

In the case of `Cc1nn2c(C(C)C)c(C(=O)N[C@H]3CCOc4ccccc43)cnc2c1-c1cccc(C(F)F)c1` [Example 153], the concentration giving a half-maximal response (EC50) is < 0.1 µg/mL in data set [1], < 0.1 µg/mL in data set [2], < 0.1 µg/mL in data set [3] and 126 nM on C. elegans Slo-1a. The molecule also returned a chromatographic logP in data set [4] of 4.41.

`Cc1nn2c(C(C)C)c(C(=O)N[C@H]3CCOc4ccccc43)cnc2c1-c1c(Cl)cccc1Cl` [Example 154]: the EC50 is < 0.1 µg/mL in data set [1], < 0.1 µg/mL in data set [2], < 0.1 µg/mL in data set [3] and 6.31 nM at C. elegans Slo-1a. The molecule also returned a chromatographic logP in data set [4] of 4.56.

As to `Cc1nn2c(C(C)C)c(C(=O)N[C@H]3CCc4ccccc43)cnc2c1-c1cccc(Cl)c1Cl` [Example 168], the EC50 in data set [1] is < 0.1 µg/mL; in data set [2] it was < 0.1 µg/mL; in data set [3], < 0.1 µg/mL; at C. elegans Slo-1a it was 3.16 nM. The chromatographic logP in data set [4] amounted to 5.13.

For the molecule `Cc1nn2c(C(C)C)c(C(=O)N[C@H]3CCCc4ccccc43)cnc2c1-c1cccc(Cl)c1Cl` [Example 169], the 50% effective concentration (EC50) in data set [1] is < 0.1 µg/mL; in data set [2], < 0.1 µg/mL; in data set [3], < 0.1 µg/mL; at C. elegans Slo-1a, 6.31 nM. Besides, the chromatographic logP in data set [4] amounted to 5.46.

On to `Cc1nn2c(C(C)C)c(C(=O)N[C@H]3CCc4ccccc43)cnc2c1-c1cc(Cl)ccc1Cl` [Example 171], for which the EC50 is < 0.1 µg/mL in data set [1], < 0.1 µg/mL in data set [2], < 0.1 µg/mL in data set [3] and 5.01 nM at C. elegans Slo-1a. The chromatographic logP in data set [4] turned out to be 5.31.

`Cc1nn2c(C(C)C)c(C(=O)N[C@H]3CCOc4ccccc43)cnc2c1-c1cc(Cl)ccc1Cl` [Example 173]: the EC50 in data set [1] was < 0.1 µg/mL; in data set [2], < 0.1 µg/mL; in data set [3] it was < 0.1 µg/mL; on C. elegans Slo-1a, 3.98 nM. In data set [4], this molecule returned a chromatographic logP of 5.

`Cc1nn2c(C(C)C)c(C(=O)N[C@H]3CCOc4ccccc43)cnc2c1-c1cccc(F)c1Cl` [Example 191]: the EC50 is < 0.1 µg/mL in data set [1], < 0.1 µg/mL in data set [2], < 0.1 µg/mL in data set [3] and 1.26 nM on C. elegans Slo-1a. In addition, the chromatographic logP in data set [4] is 4.46.

`Cc1ccccc1-c1c(C)nn2c(C(C)C)c(C(=O)N[C@H]3CCOc4ccccc43)cnc12` [Example 193]: the EC50 in data set [1] is < 0.1 µg/mL; in data set [2], < 0.1 µg/mL; in data set [3] it was < 0.1 µg/mL; at C. elegans Slo-1a, 0.794 nM. The same molecule gave a chromatographic logP in data set [4] of 4.44.

For `CCC(C)c1c(C(=O)N[C@H]2CCOc3ccccc32)cnc2c(-c3c(F)cccc3Cl)c(C)nn12` (stereo partly drawn) [Example 226], the concentration giving a half-maximal response (EC50) in data set [1] is < 0.1 µg/mL; in data set [2], < 0.1 µg/mL; in data set [3], < 0.1 µg/mL; on C. elegans Slo-1a it was 20 nM. The same molecule came in with a chromatographic logP in data set [4] of 4.72.

Take `COCc1cccc(-c2c(C)nn3c(C(C)C)c(C(=O)N[C@H]4CCc5ccccc54)cnc23)c1` [Example 300]: the 50% effective concentration (EC50) in data set [1] is < 1 µg/mL; in data set [2], < 0.1 µg/mL; in data set [3] it was < 0.1 µg/mL; on C. elegans Slo-1a it was 6.31 nM. In data set [4], this molecule yielded a chromatographic logP of 4.43.

Regarding `Cc1nn2c(C(C)C)c(C(=O)N[C@H]3CCc4ccccc43)cnc2c1-c1ccc(F)cc1` [Example 302], the EC50 in data set [1] is < 0.1 µg/mL; in data set [2] it was < 0.1 µg/mL; in data set [3] it was < 0.1 µg/mL; on C. elegans Slo-1a, 12.6 nM. This molecule yielded a chromatographic logP in data set [4] of 4.63.

As to `Cc1nn2c(C(C)C)c(C(=O)N[C@H]3CCc4ccccc43)cnc2c1-c1cc(F)cc(F)c1` [Example 323], the EC50 in data set [1] was < 0.1 µg/mL; in data set [2], < 1 µg/mL; in data set [3], < 0.1 µg/mL; at C. elegans Slo-1a, 39.8 nM. The same molecule returned a chromatographic logP in data set [4] of 5.02.

In the case of `Cc1nn2c(C(C)C)c(C(=O)N[C@H]3CCc4ccccc43)cnc2c1-c1cc(F)cc(Cl)c1` [Example 324], the EC50 in data set [1] was < 0.1 µg/mL; in data set [2] it was < 0.1 µg/mL; in data set [3], < 0.1 µg/mL; at C. elegans Slo-1a, 31.6 nM. In data set [4], this molecule returned a chromatographic logP of 5.49.

Consider `COc1cc(F)cc(-c2c(C)nn3c(C(C)C)c(C(=O)N[C@H]4CCc5ccccc54)cnc23)c1` [Example 325], for which the EC50 in data set [1] is < 0.1 µg/mL; in data set [2], < 0.1 µg/mL; in data set [3], < 0.1 µg/mL; on C. elegans Slo-1a, 20 nM. This molecule also displayed a chromatographic logP in data set [4] of 4.8.

For `Cc1nn2c(C(C)C)c(C(=O)N[C@H]3CCc4ccccc43)cnc2c1-c1cccc(OC(F)F)c1` [Example 337], the EC50 is < 0.1 µg/mL in data set [1], < 1 µg/mL in data set [2], < 0.1 µg/mL in data set [3] and 12.6 nM at C. elegans Slo-1a. In data set [4], the chromatographic logP was determined as 4.7.

Take `Cc1nn2c(C3CC3)c(C(=O)N[C@H]3CCc4ccccc43)cnc2c1-c1ccccc1Cl` [Example 349]: the 50% effective concentration (EC50) in data set [1] is < 0.1 µg/mL; in data set [2] it was < 0.1 µg/mL; in data set [3], < 0.1 µg/mL; at C. elegans Slo-1a, 2.51 nM. This molecule also gave a chromatographic logP in data set [4] of 3.88.

`COc1cccc(-c2c(C)nn3c(C4CC4)c(C(=O)N[C@H]4CCc5ccccc54)cnc23)c1` [Example 351]: the EC50 in data set [1] was < 0.1 µg/mL; in data set [2], < 0.1 µg/mL; in data set [3], < 0.1 µg/mL; at C. elegans Slo-1a it was 3.98 nM. Besides, the chromatographic logP in data set [4] was 3.74.

Values taken from patent US11001590B2, “Pyrazolopyrimidine derivatives” (BAYER ANIMAL HEALTH GMBH, priority 2016, dated 2021).
